Results from patent US12076307B2, “Compositions for prevention or treatment of acute radiation syndrome and other radiation exposure” (priority 2017, dated 2024).
Like-named read-outs stand apart in the source and are kept apart here.

Tests used:
[1] = Pathway of excretion in rats after single oral [14C]EC-18; type: in vivo, rat; conditions: 50 mg/kg oral, 50 mg/kg
Method: To assess the routes of EC-18 excretion, male rats were administered a single dose of [^14C]EC-18 (oral dose of 50 mg/kg), after which, radioactive concentrations were measured in urine, feces, and exhaled air in the chamber of the animals for 168 hrs, and in the body after the autopsy.

[2] = system: mice, 5-FU + X-radiation 20 Gy on heads and necks; test: CRIOM (chemoradiation-induced oral mucositis) murine model; type: in vivo, mouse
Source text: Radiation-Induced Coagulopathy is worsened in more severe syndromes including mucositis in the oral cavity and GI. As described above, exposure to radiation stimulates DAMP release and DAMP recognized by PRR results in an inflammatory response that causes apoptosis, mucosal atrophy, and ulceration. Specifically, TLR-4 has been identified as a major PRR, which plays a critical role in the pathogenesis of mucosal injury (Vasconcelos et al., 2016). To investigate the mitigating effect of EC-18 against CRIOM, different doses of EC-18 were administered to mice daily. CRIOM mouse model was established using concurrent treatments with 5-FU (100 mg/kg, i.p.) and X-radiation (20 Gy) on heads and necks of mice. PBS or EC-18 (100 and 250 mg/kg, p.o.) was administered daily (n=5 for each group). The body weights of mice were observed, and the mice were sacrificed on day 9.

[3] = system: C57BL/6J mice, 680 cGy TBI; test: 30-day survival in C57BL/6J mice after LD70/30 (680 cGy) TBI; type: in vivo, mouse; conditions: for Dead/Moribund, Females (percent) / Dead/Moribund, Males (percent): N=24; for Dead/Moribund, All Animals (percent): N=48
Method: The objective of this study was to evaluate the 30-day survival benefit of EC-18 in male and female C57BL/6J mice when administered by daily oral gavage at doses ranging from 100-375 mg/kg/day, for 30 consecutive days beginning approximately 24 hrs after a single LD70/30 dose (680 cGy) of TBI. The study had 4 dose groups, each with 24 animals of each sex, Group 1 animals were administered sterile PBS, Groups 2, 3, and 4 were administered EC-18 at 100, 250, and 375 mg/kg/day, respectively. Dose volumes were determined using the most recently recorded body weight. Survival was monitored for 30 days post irradiation, with early removal criterion used to determine morbidity. Clinical observations were recorded daily before administration of vehicle or test article. […] Body weights were recorded minimally 3 times per week, daily for animals with weight loss of ≥15%, or twice daily for animals with ≥20% weight loss.

CYP1A2 = type: in vitro ADME, human; conditions: for Enzyme Activity CYP1A2: n=3
OCT2 = biological target: T1, OCT2 (Homo sapiens, UniProt O15244); test: Drug transporter inhibition, OCT2; type: in vitro ADME; conditions: 100 nM [3H] methyl-4-phenylpyridinium; transfected HEK-293 cells
T1 construct: expressed in transfected cells; host or cells: HEK-293
T1 sequence (O15244 whole entry): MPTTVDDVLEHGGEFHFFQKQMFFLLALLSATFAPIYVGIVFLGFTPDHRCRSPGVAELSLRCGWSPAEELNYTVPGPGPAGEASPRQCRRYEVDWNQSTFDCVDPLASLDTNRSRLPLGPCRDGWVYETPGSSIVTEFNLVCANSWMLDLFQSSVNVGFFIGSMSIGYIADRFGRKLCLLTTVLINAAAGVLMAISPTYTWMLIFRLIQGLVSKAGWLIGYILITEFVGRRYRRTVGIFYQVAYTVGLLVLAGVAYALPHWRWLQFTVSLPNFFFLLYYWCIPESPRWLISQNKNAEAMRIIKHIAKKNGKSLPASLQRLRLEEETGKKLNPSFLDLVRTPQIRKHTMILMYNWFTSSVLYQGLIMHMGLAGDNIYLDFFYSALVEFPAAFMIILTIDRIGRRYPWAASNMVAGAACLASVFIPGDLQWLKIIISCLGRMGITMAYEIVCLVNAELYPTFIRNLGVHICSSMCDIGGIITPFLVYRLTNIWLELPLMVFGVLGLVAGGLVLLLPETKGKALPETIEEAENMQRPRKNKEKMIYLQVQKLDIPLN
Method: (§1) This study examined the potential of EC-18 to interact with the transporter proteins that have been known to be involved in the absorption of commercially available drugs. EC-18 was pre-incubated with HEK-293 cells and LLC-PK1 cells that were transfected with the genes of most drug transporters as follows: OATP1B1, OATP1B3, OAT1, OAT3 and OCT2, and BCRP and P-gp, respectively.

OAT1 = biological target: T2, OAT1 (Homo sapiens, UniProt Q4U2R8); test: Drug transporter inhibition, OAT1; type: in vitro ADME; conditions: 100 nM [3H] para-aminohippuric acid; transfected HEK-293 cells
T2 construct: expressed in transfected cells; host or cells: HEK-293
T2 sequence (Q4U2R8 whole entry, species assumed): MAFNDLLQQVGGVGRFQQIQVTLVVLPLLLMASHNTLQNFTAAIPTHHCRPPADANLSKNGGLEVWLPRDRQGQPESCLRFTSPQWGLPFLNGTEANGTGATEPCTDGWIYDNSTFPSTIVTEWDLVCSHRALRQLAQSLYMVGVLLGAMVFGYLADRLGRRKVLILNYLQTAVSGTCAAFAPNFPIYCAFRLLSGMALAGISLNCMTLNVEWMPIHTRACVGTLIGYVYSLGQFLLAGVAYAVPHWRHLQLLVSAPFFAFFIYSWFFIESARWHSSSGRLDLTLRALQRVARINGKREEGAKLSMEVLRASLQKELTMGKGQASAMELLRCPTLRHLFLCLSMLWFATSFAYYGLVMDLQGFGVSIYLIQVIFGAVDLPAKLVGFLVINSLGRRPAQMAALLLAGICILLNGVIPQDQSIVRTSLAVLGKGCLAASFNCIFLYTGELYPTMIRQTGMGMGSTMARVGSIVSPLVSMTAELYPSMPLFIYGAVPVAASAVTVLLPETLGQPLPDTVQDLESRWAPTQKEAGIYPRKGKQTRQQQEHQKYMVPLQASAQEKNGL
Method: as §1

Beagle dog = test: Cardiovascular function in conscious dogs; type: in vivo; conditions: doses up to 2000 mg/kg
Method: CA was administered to one unanesthetized and unrestrained telemetered male Beagle dog and EC-18 (500, 1000, or 2000 mg/kg) was administered to each of three unanesthetized and unrestrained telemetered male Beagle dogs (1:1:1:1) weekly for 4 weeks. Cardiovascular effects were evaluated based on the behavioral observations, BP, HR, and ECG, from 1-hr pre-dose to 24-hr post-dose.

Balb/c mice, TBI 6.5 Gy = test: Survival in extreme LD100 TBI murine model (6.5 Gy); type: in vivo, mouse; conditions: for Survival: 250 mg/kg/day 16 days
Method: Animals were treated orally with phosphate-buffered saline or EC-18 at 250 mg/kg/day for 16 days.

[4] = Plasma radioactivity in rats after single oral or IV [14C]EC-18; type: in vivo, rat; conditions: oral, fed condition
Method: Male SD rats in the fed state were administered a single oral dose of 25, 50, or 100 mg/kg (vehicle: olive oil) or a single IV injection of 10 mg/kg of [^14C]EC-18 (EC-18 with radioactive isotope ^14C attached). Subsequently, the PK parameters were assessed. The concentration of radioactivity in rat plasma was measured by liquid scintillation counting (LSC) method after adding a scintillator (Clear-Sol I, Nacalai Tesque, Inc).

[5] = system: Chinese hamster lung cells (CHL/IU); test: Chromosomal aberration test; type: cell-based; conditions: 6 and 24 hrs; with or without metabolic activation
Source text: Various toxicology studies have been performed. All studies were GLP-compliant unless otherwise noted.

BCRP = biological target: T3, BCRP (Homo sapiens, UniProt Q9UNQ0); test: Drug transporter inhibition, BCRP; type: in vitro ADME; conditions: 100 nM [3H] estrone-3-sulfate; transfected LLC-PK1 cells
T3 construct: expressed in transfected cells; host or cells: LLC-PK1
T3 sequence (Q9UNQ0 whole entry, species assumed): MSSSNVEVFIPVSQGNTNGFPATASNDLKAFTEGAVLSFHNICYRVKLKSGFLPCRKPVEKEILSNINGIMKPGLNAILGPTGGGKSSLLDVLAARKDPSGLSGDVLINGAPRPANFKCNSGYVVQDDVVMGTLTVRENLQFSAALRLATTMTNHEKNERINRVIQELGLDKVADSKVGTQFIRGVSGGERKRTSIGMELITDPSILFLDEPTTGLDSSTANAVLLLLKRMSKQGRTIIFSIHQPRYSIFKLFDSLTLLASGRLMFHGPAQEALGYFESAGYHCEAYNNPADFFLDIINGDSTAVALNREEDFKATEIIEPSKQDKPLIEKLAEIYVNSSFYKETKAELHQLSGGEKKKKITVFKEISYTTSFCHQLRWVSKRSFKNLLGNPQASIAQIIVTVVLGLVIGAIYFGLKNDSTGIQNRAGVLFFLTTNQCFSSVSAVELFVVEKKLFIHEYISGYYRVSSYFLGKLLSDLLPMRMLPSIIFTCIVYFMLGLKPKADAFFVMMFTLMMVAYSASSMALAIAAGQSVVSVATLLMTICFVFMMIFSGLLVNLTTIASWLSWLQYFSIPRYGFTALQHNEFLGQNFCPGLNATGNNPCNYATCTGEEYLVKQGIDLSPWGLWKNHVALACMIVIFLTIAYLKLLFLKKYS
Method: as §1

SMILES: CCCCC/C=C\C/C=C\CCCCCCCC(=O)OC(COC(C)=O)COC(=O)CCCCCCCCCCCCCCC (stereo not drawn) [EC-18, 1-palmitoyl-2-linoleoyl-3-acetylglycerol]
- Cumulative Radioactive Concentration Relative to the Administered Dose, Exhaled Air ([1]; 0-24 hr): approximately 71%
- Cumulative Radioactive Concentration Relative to the Administered Dose, Feces ([1]; 0-24 hr): ~3%
- Cumulative Radioactive Concentration Relative to the Administered Dose, Total ([1]; 0-24 hr): approximately 76%
- Cumulative Radioactive Concentration Relative to the Administered Dose, Urine ([1]; 0-24 hr): ~2%
- Cumulative Radioactive Concentration Relative to the Administered Dose, Exhaled Air ([1]; 0-72 hr): ~77%
- Cumulative Radioactive Concentration Relative to the Administered Dose, Feces ([1]; 0-72 hr): ~4%
- Cumulative Radioactive Concentration Relative to the Administered Dose, Total ([1]; 0-72 hr): approximately 83%
- Cumulative Radioactive Concentration Relative to the Administered Dose, Urine ([1]; 0-72 hr): ~2%
- Cumulative Radioactive Concentration Relative to the Administered Dose, Cadaver ([1]; 0-168 hr): approximately 10%
- Cumulative Radioactive Concentration Relative to the Administered Dose, Exhaled Air ([1]; 0-168 hr): ~79%
- Cumulative Radioactive Concentration Relative to the Administered Dose, Feces ([1]; 0-168 hr): ~4%
- Cumulative Radioactive Concentration Relative to the Administered Dose, Total ([1]; 0-168 hr): ~96%
- Cumulative Radioactive Concentration Relative to the Administered Dose, Urine ([1]; 0-168 hr): ~2%
- thickness of the oral epithelium ([2]; ChemoRT + EC-18): protective effect
- DAMPs (HMGB1, HSP90) in serum ([2]; ChemoRT + EC-18 250 mg/kg): subsided levels of DAMPs
- MIP-2 and IL-6 in serum ([2]; ChemoRT + EC-18 250 mg/kg): substantially less systemic inflammation
- expression level of CXCL2 and IL-6 mRNA in tongues ([2]; ChemoRT + EC-18 250 mg/kg): downregulated
- necroptotic signaling axis (RIPK1, RIPK3, MLKL phosphorylation) in tongues ([2]; ChemoRT + EC-18 250 mg/kg): significantly modulated
- neutrophils recruited at oral epithelium (IHC) ([2]; ChemoRT + EC-18 250 mg/kg): did not
- OM score and rates of ulceration ([2]; ChemoRT + EC-18 100 and 250 mg/kg): statistically improvement of OM score and lower rates of ulceration dose-dependently
- body weight ([2]; ChemoRT + EC-18 100 and 250 mg/kg p.o. daily): did not exhibit a significant weight loss
- combined sex survival ([3]; Group 2, 100 mg/kg/day): 21%
- increased survival above vehicle control, females ([3]; Group 2, 100 mg/kg/day): 29%
- survival, males ([3]; Group 2-4 (100-375 mg/kg/day)): 0-8%
- combined sex survival ([3]; Group 3, 250 mg/kg/day): 25%
- increased survival above vehicle control, females ([3]; Group 3, 250 mg/kg/day): 46%
- combined sex survival ([3]; Group 4, 375 mg/kg/day): 29%
- increased survival above vehicle control, females ([3]; Group 4, 375 mg/kg/day): 46%
- Dead/Moribund, Females (percent) ([3]; Grp 2: 100 mg/kg): 16 (67%)
- Dead/Moribund, Males (percent) ([3]; Grp 2: 100 mg/kg): 22 (92%)
- Dead/Moribund, All Animals (percent) ([3]; Grp 2: 100 mg/kg): 38 (79%)
- Dead/Moribund, Females (percent) ([3]; Grp 3: 250 mg/kg): 12 (50%)
- Dead/Moribund, Males (percent) ([3]; Grp 3: 250 mg/kg): 24 (100%)
- Dead/Moribund, All Animals (percent) ([3]; Grp 3: 250 mg/kg): 36 (75%)
- Dead/Moribund, Females (percent) ([3]; Grp 4: 375 mg/kg): 12 (50%)
- Dead/Moribund, Males (percent) ([3]; Grp 4: 375 mg/kg): 22 (92%)
- Dead/Moribund, All Animals (percent) ([3]; Grp 4: 375 mg/kg): 34 (71%)
- mean body weights vs vehicle ([3]; any study day): no statistically significant differences
- Enzyme Activity CYP1A2 (CYP1A2; 1 μM): 0.33 ± 0.04 pmol/106 Cells/Min
- Enzyme Activity CYP1A2 (CYP1A2; 10 μM): 0.38 ± 0.06 pmol/106 Cells/Min
- Enzyme Activity CYP1A2 (CYP1A2; 100 μM): 0.33 ± 0.04 pmol/106 Cells/Min
- potential to induce CYP1A2 (CYP1A2; up to 100 μM): no potential to induce
- IC50 (OCT2): > 32 µM
- IC50 (OAT1): > 32 µM
- cardiovascular effects (behavior, BP, HR, ECG) (Beagle dog): no cardiovascular effects
- signs of subcutaneous hemorrhage (Balb/c mice, TBI 6.5 Gy; 250 mg/kg/day): markedly improved
- Survival (Balb/c mice, TBI 6.5 Gy; started 24-hr post-irradiation): 65%
- Survival (Balb/c mice, TBI 6.5 Gy; started 48-hr post-irradiation): 25%
- absolute bioavailability (BA) [4]: approximately 46%
- inducible effects on chromosomal aberration [5]: EC-18 didn't have
- IC50 (BCRP): > 32 µM
